Assay results as given in patent publication US11236060B2, “Method for producing solid dispersion containing nobiletin” (KAO CORPORATION, priority 2018, dated 2022).

Test: Solubility in 25° C. water of the poorly water-soluble substance
Type: physicochemical
Settings: poorly water-soluble substance itself (ingredient)

Row | Solubility in 25° C. water | Compound
1 | 1 ppm | COc1ccc(-c2cc(=O)c3c(OC)c(OC)c(OC)c(OC)c3o2)cc1OC [Nobiletin, 3′,4′,5,6,7,8-hexamethoxyflavone]
2 | 4 ppm | O=c1oc2c(O)c(O)cc3c(=O)oc4c(O)c(O)cc1c4c23 [Ellagic acid, ellagic acid]
